In ChEMBL document CHEMBL3431459, “Roche carnitine palmitoyltransferase modulator screening data (supplementary data associated with the publication CHEMBL2216752)”:
pIC50: −log10 of the molar value.

Assays:
[1] = biological target: T1, Carnitine O-palmitoyltransferase 1, liver isoform (Rattus norvegicus, UniProt P32198); assay: (§1) SUPPLEMENTARY: Inhibition of Carnitine palmitoyltransferase 1, liver isoform
T1 sequence (P32198 whole entry): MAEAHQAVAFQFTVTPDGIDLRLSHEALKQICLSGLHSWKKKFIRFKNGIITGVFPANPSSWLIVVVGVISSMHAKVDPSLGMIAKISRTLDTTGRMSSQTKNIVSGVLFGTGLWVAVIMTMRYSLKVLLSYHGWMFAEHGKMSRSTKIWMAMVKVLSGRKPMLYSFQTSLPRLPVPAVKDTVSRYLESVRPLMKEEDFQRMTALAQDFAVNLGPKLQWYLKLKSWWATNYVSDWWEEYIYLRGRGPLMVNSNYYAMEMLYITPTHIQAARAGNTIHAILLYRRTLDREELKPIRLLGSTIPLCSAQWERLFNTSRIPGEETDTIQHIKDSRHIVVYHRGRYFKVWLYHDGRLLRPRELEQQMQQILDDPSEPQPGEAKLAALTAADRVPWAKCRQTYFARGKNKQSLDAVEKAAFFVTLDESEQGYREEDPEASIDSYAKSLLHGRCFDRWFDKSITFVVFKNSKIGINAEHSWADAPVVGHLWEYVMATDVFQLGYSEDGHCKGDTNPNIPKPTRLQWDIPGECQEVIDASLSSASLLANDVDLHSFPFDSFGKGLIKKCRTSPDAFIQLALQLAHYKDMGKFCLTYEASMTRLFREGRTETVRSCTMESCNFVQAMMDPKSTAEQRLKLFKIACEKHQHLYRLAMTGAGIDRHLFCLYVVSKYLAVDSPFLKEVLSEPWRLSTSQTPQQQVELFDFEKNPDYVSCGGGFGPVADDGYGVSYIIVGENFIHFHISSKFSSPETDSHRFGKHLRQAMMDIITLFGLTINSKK

[2] = biological target: T2, Carnitine O-palmitoyltransferase 1, muscle isoform (Homo sapiens, UniProt Q92523); assay: SUPPLEMENTARY: Inhibition of Carnitine palmitoyltransferase 1, muscle isoform; design: species or system Muscle tissue
T2 sequence (Q92523 whole entry): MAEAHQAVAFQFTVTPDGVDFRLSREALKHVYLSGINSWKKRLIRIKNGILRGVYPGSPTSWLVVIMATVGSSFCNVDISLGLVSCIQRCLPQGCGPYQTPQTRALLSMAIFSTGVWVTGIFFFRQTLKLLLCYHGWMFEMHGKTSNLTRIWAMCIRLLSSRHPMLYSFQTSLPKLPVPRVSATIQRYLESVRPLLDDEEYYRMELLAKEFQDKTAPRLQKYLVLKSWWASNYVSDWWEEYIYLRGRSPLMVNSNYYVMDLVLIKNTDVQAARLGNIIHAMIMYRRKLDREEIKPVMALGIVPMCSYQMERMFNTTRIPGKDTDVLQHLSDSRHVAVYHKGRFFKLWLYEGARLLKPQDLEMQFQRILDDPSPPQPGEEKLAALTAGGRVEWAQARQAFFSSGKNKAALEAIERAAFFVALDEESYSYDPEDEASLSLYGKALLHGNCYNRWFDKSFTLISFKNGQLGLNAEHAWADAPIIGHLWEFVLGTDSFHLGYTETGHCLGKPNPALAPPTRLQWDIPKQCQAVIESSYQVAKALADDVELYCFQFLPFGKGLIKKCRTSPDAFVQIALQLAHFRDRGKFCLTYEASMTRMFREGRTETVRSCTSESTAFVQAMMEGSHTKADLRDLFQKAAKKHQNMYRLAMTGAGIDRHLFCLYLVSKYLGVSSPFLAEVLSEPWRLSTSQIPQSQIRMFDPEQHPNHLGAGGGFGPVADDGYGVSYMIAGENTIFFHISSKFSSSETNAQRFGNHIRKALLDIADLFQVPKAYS

[3] = biological target: T3, Carnitine O-palmitoyltransferase 2, mitochondrial (Rattus norvegicus, UniProt P18886); assay: (§2) SUPPLEMENTARY: Inhibition of Carnitine palmitoyltransferase 2
T3 sequence (P18886 whole entry): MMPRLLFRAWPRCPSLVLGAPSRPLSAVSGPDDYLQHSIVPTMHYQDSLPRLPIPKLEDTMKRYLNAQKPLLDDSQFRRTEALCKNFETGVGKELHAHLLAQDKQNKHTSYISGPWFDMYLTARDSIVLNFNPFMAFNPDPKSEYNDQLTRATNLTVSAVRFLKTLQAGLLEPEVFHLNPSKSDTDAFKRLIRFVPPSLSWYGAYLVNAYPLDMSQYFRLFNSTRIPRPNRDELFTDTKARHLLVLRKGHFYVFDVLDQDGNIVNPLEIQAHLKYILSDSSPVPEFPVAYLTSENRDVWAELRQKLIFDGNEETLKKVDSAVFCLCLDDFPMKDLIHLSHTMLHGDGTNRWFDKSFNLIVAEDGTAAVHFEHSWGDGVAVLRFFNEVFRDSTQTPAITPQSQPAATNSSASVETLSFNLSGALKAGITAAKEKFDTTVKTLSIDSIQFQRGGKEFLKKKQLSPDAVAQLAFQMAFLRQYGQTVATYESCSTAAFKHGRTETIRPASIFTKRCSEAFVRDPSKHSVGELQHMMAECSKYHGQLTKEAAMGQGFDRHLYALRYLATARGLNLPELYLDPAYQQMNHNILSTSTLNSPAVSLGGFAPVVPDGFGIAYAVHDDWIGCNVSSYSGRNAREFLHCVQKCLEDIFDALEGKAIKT

[4] = biological target: T4, Carnitine O-palmitoyltransferase 2, mitochondrial (Homo sapiens, UniProt P23786); assay: as §2
T4 sequence (P23786 whole entry): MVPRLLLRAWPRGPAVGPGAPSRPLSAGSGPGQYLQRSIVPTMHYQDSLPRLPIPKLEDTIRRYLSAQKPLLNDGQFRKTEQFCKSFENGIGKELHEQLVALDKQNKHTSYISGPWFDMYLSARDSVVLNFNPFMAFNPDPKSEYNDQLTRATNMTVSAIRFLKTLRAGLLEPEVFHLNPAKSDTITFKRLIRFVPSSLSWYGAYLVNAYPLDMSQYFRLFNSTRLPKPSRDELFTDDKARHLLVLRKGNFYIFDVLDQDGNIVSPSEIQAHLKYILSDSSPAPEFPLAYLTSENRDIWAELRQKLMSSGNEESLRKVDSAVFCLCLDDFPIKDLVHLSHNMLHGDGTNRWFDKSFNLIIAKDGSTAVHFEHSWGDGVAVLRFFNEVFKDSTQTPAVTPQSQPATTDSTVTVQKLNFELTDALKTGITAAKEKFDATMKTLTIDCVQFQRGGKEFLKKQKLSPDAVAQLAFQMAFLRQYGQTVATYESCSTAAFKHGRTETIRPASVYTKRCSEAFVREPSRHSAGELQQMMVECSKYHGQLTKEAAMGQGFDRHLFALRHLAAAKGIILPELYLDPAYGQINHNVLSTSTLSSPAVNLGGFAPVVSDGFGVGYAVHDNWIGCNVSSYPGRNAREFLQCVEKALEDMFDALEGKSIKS

[5] = biological target: T5, Carnitine O-palmitoyltransferase 1, liver isoform (Homo sapiens, UniProt P50416); assay: as §1
T5 sequence (P50416 whole entry): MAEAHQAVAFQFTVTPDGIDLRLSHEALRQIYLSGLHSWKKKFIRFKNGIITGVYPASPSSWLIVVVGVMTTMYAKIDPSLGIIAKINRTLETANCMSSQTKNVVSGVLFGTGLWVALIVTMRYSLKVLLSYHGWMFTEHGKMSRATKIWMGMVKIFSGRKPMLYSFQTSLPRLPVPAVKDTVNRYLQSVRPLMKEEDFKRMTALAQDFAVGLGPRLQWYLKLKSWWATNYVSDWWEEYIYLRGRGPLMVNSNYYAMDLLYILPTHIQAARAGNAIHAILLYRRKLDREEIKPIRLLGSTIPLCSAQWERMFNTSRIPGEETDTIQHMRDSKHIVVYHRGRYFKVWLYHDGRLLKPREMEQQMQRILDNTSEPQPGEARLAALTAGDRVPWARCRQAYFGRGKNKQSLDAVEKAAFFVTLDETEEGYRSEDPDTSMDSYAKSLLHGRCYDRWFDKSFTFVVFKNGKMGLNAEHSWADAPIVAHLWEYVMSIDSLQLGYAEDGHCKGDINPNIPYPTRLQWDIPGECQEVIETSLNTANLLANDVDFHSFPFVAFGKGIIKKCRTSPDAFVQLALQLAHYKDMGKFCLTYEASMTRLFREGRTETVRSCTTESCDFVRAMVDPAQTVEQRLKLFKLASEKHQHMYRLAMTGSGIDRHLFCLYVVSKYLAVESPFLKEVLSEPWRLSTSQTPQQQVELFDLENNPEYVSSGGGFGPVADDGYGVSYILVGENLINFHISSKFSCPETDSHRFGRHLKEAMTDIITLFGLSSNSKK

SMILES	pIC50 [1]	pIC50 [2]	pIC50 [3]	pIC50 [4]	pIC50 [5]
COC(=O)c1cccc(-c2csc([C@H]3CCCCN3C(=O)COc3ccccc3)n2)n1	6.76	5.12	< 4.00	4.77	–
O=C(COc1ccccc1)N1CCCC[C@@H]1c1nc(-c2ccc3c(c2)OCO3)cs1	6.65	< 4.00	< 4.00	4.25	–
O=C(COc1ccccc1)N1CCCC[C@@H]1c1nc(-c2ccc(O)cc2)cs1	6.64	4.46	< 4.00	< 4.00	–
O=C(COc1ccccc1)N1CCCC[C@@H]1c1csc(-c2cccnc2)n1	7.20	5.38	4.28	< 4.00	–
O=C(COc1ccccc1)N1CCCC[C@@H]1c1nc(-c2ccc(Br)s2)cs1	5.87	5.25	< 4.00	4.32	–
O=C(COc1ccccc1)N1CCCCC1c1ncc(-c2cccc([N+](=O)[O-])c2)s1 (configuration not stated)	6.02	< 4.00	–	< 4.00	6.69
O=C(COc1ccccc1)N1CCCC[C@@H]1c1csc(-c2cnccn2)n1	6.23	4.22	4.05	4.49	–
O=C(COc1ccccc1)N1CCCC[C@@H]1c1csc(Cc2ccc(Cl)cc2)n1	5.54	< 4.00	< 4.00	< 4.00	–
O=C(COc1ccccc1)N1CCCCC1c1cc(=O)n(-c2ccc(F)cc2)[nH]1 (configuration not stated)	5.80	< 4.00	–	< 4.00	6.55
O=C(COc1ccccc1)N1CCCC[C@@H]1c1csc(-c2ccncc2)n1	6.66	< 4.00	4.10	< 4.00	–
COC(=O)c1ccc(-c2nc([C@H]3CCCCN3C(=O)COc3ccccc3)cs2)cc1	5.92	< 4.00	< 4.00	< 4.00	–
O=C1Cc2cc(-c3csc([C@H]4CCCCN4C(=O)COc4ccccc4)n3)ccc2N1	6.81	< 4.00	4.37	6.16	–
O=C1CN(NC(=O)c2cccc(-c3n[nH]c([C@H]4CCCCN4C(=O)COc4ccccc4)n3)c2)C(=O)N1	6.24	< 4.00	–	4.71	6.56
Cc1cc(C)cc(S(=O)(=O)N2CCOc3ccc(C(=O)Nc4ccc(C(=O)O)c(F)c4)cc32)c1	7.15	5.57	–	5.69	6.60
O=C(O)c1cccc(-c2csc([C@H]3CCCCN3C(=O)COc3ccccc3)n2)n1	6.52	4.71	4.00	4.09	–
O=C(COc1ccccc1)N1CCCC[C@@H]1c1nc(-c2ccc(O)cc2)no1	6.91	4.41	–	4.12	7.14
O=C(COc1ccccc1)N1CCCC[C@@H]1c1csc(-c2ccc(F)cc2)n1	6.36	< 4.00	< 4.00	< 4.00	–
N#Cc1cccc(-c2csc([C@H]3CCCCN3C(=O)COc3ccccc3)n2)c1	6.89	5.09	4.17	5.18	–
O=C(COc1ccccc1)N1CCCC[C@@H]1c1csc(-c2ccc(C(F)(F)F)cn2)n1	5.70	< 4.00	< 4.00	4.30	–
O=C(COc1ccccc1)N1CCCC[C@@H]1c1csc(C2COc3ccccc3O2)n1 (some centres not stated)	5.44	< 4.00	< 4.00	< 4.00	–
O=C(O)c1ccc(-c2nc([C@H]3CCCCN3C(=O)COc3ccccc3)cs2)cc1	5.65	< 4.00	< 4.00	5.29	–
O=C([C@H]1CCCCN1C(=O)COc1ccccc1)N1CCc2ccc([N+](=O)[O-])cc2C1	–	< 4.00	5.55	5.79	6.19
CC(=O)Nc1ccc(-c2csc([C@H]3CCCCN3C(=O)COc3ccccc3)n2)cc1	6.92	< 4.00	< 4.00	5.43	–
COc1ccc(C)cc1S(=O)(=O)N1CCCc2ccc(C(=O)Nc3ccc(CC(=O)O)cc3)cc21	6.73	–	–	–	–
COc1ccc(Cl)cc1S(=O)(=O)N1COc2c(OC)cc(C(=O)Nc3ccc(C(=O)O)cc3)cc21	–	4.54	5.67	6.11	6.28
